Converted amounts (≈) assume the structure as drawn.
Legend:
[1] = system: Staphylococcus aureus ATCC 29213; test: antimicrobial serial microdilution, S. aureus; format: cell-based; conditions: serial microdilution, 37 °C, 24 h
Method: (§1) The in vitro antifungal and antimicrobial activities were determined by testing the Schiff bases against the fungi Saccharomyces cerevisiae, Candida albicans, and Aspergillus niger and the bacteria Staphylococcus aureus, Enterococcus faecalis (Gram-positive), Pseudomonas aeruginosa, and Escherichia coli (Gram-negative).
(§2) The bacterial inoculum was prepared by emulsifying overnight colonies from an agar medium in broth (Mueller–Hinton broth). The suspensions were adjusted to a final organism density of 5 × 10^5 colony former units (cfu)/mL. […] The emulsifying of A. niger cultures was done by pouring 5 mL of saline and 0.1% of polysorbate 80 over the Petri dishes. Then, 100 µL of this suspension were diluted in 5 mL of saline and adjusted to an optical density of 0.1 at 530 nm. For S. cerevisiae, fresh exponential YPAD (yeast extract 1%, peptone 2%, adenine 0.004%, […]) cultures were adjusted to an optical density of 0.5 at 600 nm, and then diluted to the equivalent of 1 × 10^4 cells/mL (10^−3 dilution). Stock solutions of Schiff bases were prepared by dissolving them in DMSO at 10 mg/mL. […] The range of concentrations used was empirically selected for each organisms and the Schiff base. Drug sensitivities were assayed by serial dilutions in 96-well plates as previously described. A row with media and cells but without drug was the positive control. The blank was done by preparing a row with media and drugs, but without cells. Plates were fitted with a tight lid before incubation to prevent desiccation. […] The minimum bactericidal concentration (MBC) and fungicidal concentration (MFC) were determined by spreading 100 µL of culture from each well onto a plate (Mueller–Hinton agar for bacteria, Sabouraud dextrose agar for fungi except S. cerevisiae, and YPAD for S. cerevisiae).

[2] = DPPH radical scavenging assay; format: biochemical; conditions: 30 min, room temperature, dark, absorbance 515 nm
Method: This was used immediately. The experimental procedure was adapted from the literature. Briefly, in a 96-well plate, 100 µL of solution of DPPH (2, 2-diphenyl-1-picrylhydrazyl) radical (0.2 mM in methanol) was added to 100 µL of methanolic solutions of 3a–j, 4, or 5, prepared as serial two-fold dilutions from the stock solution. Standards were also prepared in the same concentrations.
The percentage of DPPH scavenging was then calculated by using the following formula: % DPPH scavenging=100∗Asample+DPPH−Asample blank/ADPPH−Asolvent

RAW 264.7 cells = test: cell viability, MTT dye assay; format: cell-based, murine; conditions: RAW 264.7, exposure to 400 µM, 48 h
Method: The specificity and selectivity for the pathogen target is a key point for any potential drug.
The medium was renewed once a week. The viability was determined using MTT (thiazolyl blue tetrazolium bromide) dye assay as described previously for leishmanicidal activity assessment, with some variations. Here, 5 × 10^4 cells/well in a final volume of 100 µL were deposited into a 96-well plate in triplicate. Saponin (2 and 4 mg/mL) and untreated cells were used as the positive control and negative control, respectively. Schiff bases were dissolved in DMSO to obtain different serial concentrations (0.01–2000 µM). […] Cells were pelleted by centrifugation at 4400 rpm for 10 minutes and the media was removed. Next, 100 µL/well of DMSO were added and the absorbance at 570 nm was recorded. A reference wavelength of 630 nm was used for background subtraction.

[3] = system: Enterococcus faecalis ATCC 29212; test: antimicrobial serial microdilution, E. faecalis; format: cell-based; conditions: serial microdilution, 37 °C, 24 h
Method: as §1, §2

[4] = system: Escherichia coli ATCC 25922; test: antimicrobial serial microdilution, E. coli; format: cell-based; conditions: serial microdilution, 37 °C, 24 h
Method: as §1, §2

P. aeruginosa ATCC 27853 = test: antimicrobial serial microdilution, P. aeruginosa; format: cell-based; conditions: Pseudomonas aeruginosa, ATCC27853, 37 °C, 24 h
Method: as §1, §2

[5] = system: Aspergillus niger ATCC 6275; test: antimicrobial serial microdilution, A. niger; format: cell-based; conditions: serial microdilution, 35 °C, 48 h; for MIC: 96-well plates, max 2% DMSO
Method: as §1, §2

[6] = system: Candida albicans ATCC 10231; test: antimicrobial serial microdilution, C. albicans; format: cell-based; conditions: serial microdilution, 35 °C, 48 h
Method: as §1, §2

[7] = system: S. cerevisiae (backgrounds W303 and BY4741); test: antimicrobial serial microdilution, S. cerevisiae; format: cell-based, Saccharomyces cerevisiae; conditions: serial microdilution, 35 °C, 48 h; for MIC: read-out: MIC S. cerevisiae
Method: as §1, §2

[8] = system: promastigotes from L. mexicana (M379); test: leishmanicidal activity, MTT colorimetric assay; format: cell-based; conditions: Leishmania mexicana, 48 h exposure, 1% DMSO
Method: Leishmanicidal activities of all Schiff bases were evaluated by measuring promastigote mitochondrial activity using MTT colorimetric assay as described previously. […] The medium was renewed every four days. Parasite density was determined in a Neubauer chamber.
Into each well of a 96-well cell culture dish was dispensed 1 × 10^6 parasites. A stock solution of each of the Schiff Base was prepared in DMSO, and serial dilutions were added to the parasite suspension, keeping the solvent concentration at 1%. The final volume was 100 µL for each well and triplicate conditions were carried out. Pentamidine treatment (100 µg/mL) and untreated parasites were used as positive control and negative control, respectively. After exposure to the compounds for 48 h in culture medium, 10 µL of a solution of 5 mg/mL MTT dissolved in PBS was added to each well. […] Later, the plate was centrifuged at 4400 rpm for 10 min and the culture medium was then aspirated. Next, 100 µL of DMSO were added into each well to solubilize the formazan and the plate was shaken for 5 min. The colored formazan salt was measured by recording changes in absorbance at 570 nm using a microplate reader, a BioTek Synergy HT spectrophotometer. A reference wavelength of 630 nm was used to subtract background. Optical densities were analyzed as the quantity of formazan is directly proportional to the number of viable parasites. Data were analyzed with the statistical software GraphPad Prism.

[9] = Staphylococcus aureus, ATCC29213
[10] = Enterococcus faecalis, ATCC29212

Compound | MIC [1, 9] | IC50 [2] | MIC [3, 10] | MIC ([4]; Escherichia coli, ATCC25922) | MIC (P. aeruginosa ATCC 27853) | MIC ([5]; Aspergillus niger, ATCC6275) | MIC ([6]; Candida albicans, ATCC10231) | MIC ([7]; Saccharomyces cerevisiae) | melting point | IC50 [8] | also measured
Cc1c(N=Cc2ccccc2)c(=O)n(-c2ccccc2)n1C [Compound 3a, 4-Benzylideneamino-1,5-dimethyl-2-phenyl-1H-pyrazol-3(2H)-one] | > 200 µg/mL | > 200 µM | 32.3 ± 11.7 µg/mL (≈ 111 µM) | > 200 µg/mL | > 200 µg/mL | > 200 µg/mL | > 200 µg/mL | > 200 µg/mL | 176.8 to 177.2 °C | > 200 µM | % Live Cells (RAW 264.7 cells): 27.1 ± 3.4%; IC50 [3, 10]: 12.2 µg/mL (≈ 41.9 µM); NIC E. faecalis ([3]; noninhibitory concentration): 3.6 ± 0.7 µg/mL
Cc1c(N=Cc2cc([N+](=O)[O-])ccc2O)c(=O)n(-c2ccccc2)n1C [Compound 3f, 4-(2-Hydroxy-5-nitrobenzylideneamino)-1,5-dimethyl-2-phenyl-1H-pyrazol-3(2H)-one] | 27.7 ± 4.7 µg/mL (≈ 78.6 µM) | > 200 µM | > 200 µg/mL | 47.7 ± 1 µg/mL (≈ 135 µM) | > 200 µg/mL | 32.6 ± 2.1 µg/mL (≈ 92.5 µM) | 15.6 ± 0.9 µg/mL (≈ 44.3 µM) | 55.9 ± 6.2 µg/mL (≈ 159 µM) | 204.9 to 205.6 °C | 5.3 ± 2.8 µM | IC50 [1, 9]: 9.5 µg/mL (≈ 27 µM); NIC S. aureus ([1]; noninhibitory concentration): 3.3 ± 1.5 µg/mL; IC50 ([4]; Escherichia coli, ATCC25922): 15.8 µg/mL (≈ 44.8 µM); NIC E. coli ([4]; noninhibitory concentration): 4.9 ± 0.2 µg/mL; IC50 ([5]; Aspergillus niger, ATCC6275): 10.6 µg/mL (≈ 30.1 µM); NIC A. niger ([5]; noninhibitory concentration): 3.4 ± 0.5 µg/mL; IC50 ([6]; Candida albicans, ATCC10231): 10.4 µg/mL (≈ 29.5 µM); NIC C. albicans ([6]; noninhibitory concentration): 7.5 ± 1.1 µg/mL; IC50 ([7]; Saccharomyces cerevisiae, read-out: IC50 S. cerevisiae (converted)): 17.9 µg/mL (≈ 50.8 µM); NIC S. cerevisiae ([7]; noninhibitory concentration): 5.6 ± 0.9 µg/mL
